In ChEMBL document CHEMBL1157024, “First synthesis and biological evaluation of novel spin-labeled derivatives of deoxypodophyllotoxin” (Eur J Med Chem, 2010):

Assays:
[1] = test system: Liver; test: Antioxidant activity in Sprague-Dawley rat liver assessed as lipid peroxidation by thiobarbituric acid assay; type: functional, tissue-based
[2] = test system: A549; test: Cytotoxicity against human A549 cells after 48 hrs by MTT assay; type: functional, cell-based
[3] = test system: RPMI-8226; test: Cytotoxicity against human RPMI8226 cells after 72 hrs by CCK8 method; type: functional, cell-based
[4] = test system: Kidney; test: Antioxidant activity in Sprague-Dawley rat kidney assessed as lipid peroxidation by thiobarbituric acid assay; type: functional, tissue-based
[5] = test system: HL-60; test: Cytotoxicity against human HL60 cells after 72 hrs by CCK8 method; type: functional, cell-based
[6] = Rattus norvegicus, Sprague-Dawley, Liver
[7] = Rattus norvegicus, Sprague-Dawley, Kidney

SMILES | IC50 [1] [nM] | IC50 ([2]; a549) [nM] | IC50 ([3]; rpmi-8226) [nM] | IC50 [4] [nM] | IC50 ([5]; hl-60) [nM] | IC50 [1, 6] [nM] | IC50 ([2]; Homo sapiens, A549, 48 h) [nM] | IC50 ([3]; Homo sapiens, RPMI-8226, 72 h) [nM] | IC50 [4, 7] [nM] | IC50 ([5]; Homo sapiens, HL-60, 72 h) [nM]
COc1cc([C@@H]2c3cc4c(cc3C[C@H]3COC(=O)[C@@H]32)OCO4)cc(OC)c1OC(=O)CNC(=O)OC1CC(C)(C)N([O])C(C)(C)C1 | 14400 | 620 | 73 | 13700 | 8.7 | – | – | – | – | –
COc1cc([C@@H]2c3cc4c(cc3C[C@H]3COC(=O)[C@@H]32)OCO4)cc(OC)c1OC(=O)[C@H](C)NC(=O)OC1CC(C)(C)N([O])C(C)(C)C1 | 15300 | 670 | 44 | 15800 | 12 | – | – | – | – | –
COc1cc([C@@H]2c3cc4c(cc3C[C@H]3COC(=O)[C@@H]32)OCO4)cc(OC)c1OC(=O)[C@@H](NC(=O)OC1CC(C)(C)N([O])C(C)(C)C1)C(C)C | 19300 | 550 | 160 | 20300 | 24 | – | – | – | – | –
COc1cc([C@@H]2c3cc4c(cc3C[C@H]3COC(=O)[C@@H]32)OCO4)cc(OC)c1OC(=O)[C@H](CC(C)C)NC(=O)OC1CC(C)(C)N([O])C(C)(C)C1 | 18000 | 770 | 110 | 12100 | 85 | – | – | – | – | –
CC[C@H](C)[C@H](NC(=O)OC1CC(C)(C)N([O])C(C)(C)C1)C(=O)Oc1c(OC)cc([C@@H]2c3cc4c(cc3C[C@H]3COC(=O)[C@@H]32)OCO4)cc1OC | 13200 | 830 | 58 | 6890 | 36 | – | – | – | – | –
COc1cc([C@@H]2c3cc4c(cc3C[C@H]3COC(=O)[C@@H]32)OCO4)cc(OC)c1OC(=O)[C@@H]1CCCN1C(=O)OC1CC(C)(C)N([O])C(C)(C)C1 | 9700 | 600 | 130 | 14600 | 140 | – | – | – | – | –
COc1cc([C@@H]2c3cc4c(cc3C[C@H]3COC(=O)[C@@H]32)OCO4)cc(OC)c1OC(=O)[C@H](Cc1ccccc1)NC(=O)OC1CC(C)(C)N([O])C(C)(C)C1 | 10400 | 500 | 31 | 15000 | 18 | – | – | – | – | –
COc1cc([C@@H]2c3cc4c(cc3C[C@H]3COC(=O)[C@@H]32)OCO4)cc(OC)c1OC(=O)[C@H](Cc1ccc(O)cc1)NC(=O)OC1CC(C)(C)N([O])C(C)(C)C1 | 15200 | 270 | 43 | 16300 | 32 | – | – | – | – | –
COc1cc([C@@H]2c3cc4c(cc3C[C@H]3COC(=O)[C@@H]32)OCO4)cc(OC)c1O [4'-DEMETHYLDEOXYPODOPHYLLOTOXIN] | – | – | – | – | – | 33800 | 800 | 230 | 23000 | 110
COc1cc([C@@H]2c3cc4c(cc3[C@@H](O[C@@H]3O[C@@H]5CO[C@@H](C)O[C@H]5[C@H](O)[C@H]3O)[C@H]3COC(=O)[C@H]23)OCO4)cc(OC)c1O [ETOPOSIDE] | – | – | – | – | – | 46400 | 830 | 700 | 64600 | 180
